In patent US20230309522A1, “ANIMAL MODEL, METHODS FOR MAKING AND USING THEREOF, AND COMPOSITION FOR TREATING ATAXIA” (priority 2022, published 2023):
Marks after values point to notes of the source that are not given here.

Assays:
Format in all cases: in vivo, mouse
C57BU6J mice [1] = test: Footprint test on 3AP-induced ataxia mice
Text: (§1) Four different behavior tests were used in the present disclosure: footprint, irregular ladder, rotarod and body balance (elevated beam) tests. These behavior tests have been widely used for detection of ataxia^40-42. Two different time durations were used to differentiate the peak and trough expressions of the Bmal1 gene. i.e., daytime described herein refers to seven hours later after light exposure (˜2 pm); nighttime described herein refers to four hours later after dim light ([…]). These behavior tests were carried out at daytime (˜2 pm) and nighttime (˜11 pm), given the differential expression of Bmal1 in cerebellum having the highest level at ˜2 pm and the lowest level at ˜11 pm.
Footprint test: Three measurements were included: i) front paw distance; ii) hind paw distance; and iii) stride. The footprint behavior tool was custom-made to have a narrow, foot-printable glass plate with the length of 85 cm and the width of 5 cm. Each paw distance was measured with footsteps printed during the walking across the narrow road.

C57BU6J mice [2] = test: Elevated beam test on 3AP-induced ataxia mice
Text: as §1
Elevated beam test: Every single slip was counted during the walking^43. Mice were requested to walk through a wall with a distance of 40 cm, a height of 16 cm and a width of 0.5 cm. All tests were conducted in a quiet environment without noise and bright light disturbance.

C57BU6J mice [3] = test: Determining the least concentration of 3AP for induction of ataxia-like behaviors: survival time
Method: Six to seven-week-old C57BU6J and B6.129-Arnt1^tm1Bra/J (Bmal1 gene-deficient mice) male mice were used for all experiments described hereinafter. All experiments were performed on mice anesthetized by an intraperitoneal (i.p.) injection of 100 mg ketamine/kg and 20 mg xylazine/kg, based on their body weights.
In this example, a chemically-induced ataxia animal model was established upon systematic application of 3AP^19,20. Besides systematic (i.e. intraperitoneal, i.p., injection), local injection [in cerebellum, coordinate (Bregma): −7.08, 0, −2.1] of 3AP in C57BU6J mice could also be used to generate the chemically-induced ataxia animal models^23-25. Initially, different concentrations of 3AP were applied for determining the least concentration of 3AP for life-long induction of ataxia-like behaviors (Table 1).

Per1 = test: Quantitative RT-PCR of brain regions, Per1 mRNA
Method: (§2) To prepare RNA by RT-PCR, mice were deeply anesthetized with isoflurane inhalation. […] Total RNA was extracted by TRIzol reagent-based procedure (Thermofisher scientific, USA) and quantified by NanoDrop 2000 spectrophotometer ([…], USA). The total RNA obtained (20 μg) was reverse-transcribed to synthesize complementary DNA (cDNA) using a first-strand cDNA synthesis kit (Takara. Japan). Quantitative assays were performed on each cDNA using the primers listed in Table 3 with SYBR® Premix Ex Taq™ (Takara, Japan) in the given cycling condition (95° C. for 30 seconds, 32 cycles of 95° C. for 5 seconds and 60° C. for 30 seconds), as provided by the manufacturer's instruction.

C57BU6J mice [4] = test: Rotarod test on 3AP-induced ataxia mice; conditions: for motor learning, percentage change in rotarod performance: 3AP local; for rotarod-based motor behavior: 3AP-induced ataxia mice, FIG. 1C
Text: as §1
Rotarod test: It has been widely used in determining general motor skills. In brief, mice walked on the rotarod with a width of 5 cm, a height of 20 cm and a diameter of 3 cm of rolling rods. The total time for mice to sustain on the rotarod in increasing speeds at a unit of revolution per minute (rpm) was taken for a measurement of motor skills such as balance and gait functions. Motor learning was calculated as a percentage change in the performance (at a maximum speed) over 5 min, 10 min or 15 min blocks sequentially.

Cry1 = test: Quantitative RT-PCR of brain regions, Cry1 mRNA
Method: as §2

C57BU6J mice [5] = test: Irregular ladder test on 3AP-induced ataxia mice
Text: as §1
Irregular ladder test: A mouse was requested to walk through an irregularly arranged ladder with a distance of 85 cm and a width of 5 cm. Every single slip during walk steps was counted as a failure of gait and balance measurement.

Bmal1 = test: Quantitative RT-PCR of brain regions, Bmal1 mRNA
Method: as §2

Tyrosine Hydrolase (TH) = test: Immunohistochemistry of substantia nigra compacta, Tyrosine Hydrolase expression; conditions: 3AP ataxia model vs wildtype, FIGS. 6A and 6B
Method: (§3) The cerebellar tissue was isolated from anesthetized mice (six weeks old) and fixed with paraformaldehyde in […] (Thermofisher scientific, USA) and overnight at 4° C. The cerebellar tissue was then dehydrated by being incubated with PBS containing 30% sucrose at 4° C. then embedded in optimal cutting temperature (OCT) medium (Thermofisher scientific, USA) and frozen by using dry ice. The frozen tissues were cut with a cryostat (Thermo HM525NX Cryostat with UV Disinfection, Thermofisher scientific, USA) at 20 µm thickness and slices were placed on glass slides (Thermofisher scientific, USA). For immunohistochemical analysis, cerebellar tissue specimens were washed with PBS for 30 min and blocked with 10% bovine serum albumin (Sigma-Aldrich, USA) in PBST for 30 min at room temperature and then incubated with respective primary antibodies (Calbindin [8 μg/mL]: Invitrogen, USA; Tyrosine Hydrolase [1:400]: Invitrogen. USA) for overnight at 4° C. The specimens were further incubated with secondary antibodies (1:1500, Invitrogen. USA) for overnight at 4° C. […] The DAPI intensity and primary antibody (Calbindin or Tyrosine Hydrolase) intensity were recorded. The relative primary antibody intensity was calculated based on the following formula: […]

Clock = test: Quantitative RT-PCR of brain regions, Clock mRNA
Method: as §2

Calbindin = test: Immunohistochemistry of cerebellar tissue, relative calbindin intensity; conditions: 3AP-injected mice, relative to WT 1.00, FIG. 3C
Method: as §3

CC(=O)c1cccnc1 [3AP, 3-acetyl pyridine]
front paw distance (C57BU6J mice [1]; 35 mg/kg 3AP-injected mice, FIG. 1A, WT 1.084): 0.832±0.112 cm | hind paw distance (C57BU6J mice [1]; 35 mg/kg 3AP-injected mice, FIG. 1A, WT 2.09): 4.67±0.208 cm | stride (C57BU6J mice [1]; 35 mg/kg 3AP-injected mice, FIG. 1A, WT 5.27): 1.11±0.088 cm | hind paw distance (C57BU6J mice [1]; local 3AP-intoxicated mice without Bmal1 viral vector, FIG. 4C, wildtype 2.13): 4.28±0.314 cm | stride (C57BU6J mice [1]; local 3AP-intoxicated mice without Bmal1 viral vector, FIG. 4D, wildtype 5.02): 1.10±0.124 cm | front paw distance (C57BU6J mice [1]; local 3AP-intoxicated mice without Bmal1 viral vector, FIG. 4E, wildtype 1.12): 1.10±0.053 cm | slips in the elevated beam test (C57BU6J mice [2]; 3AP local injection in the cerebellum, FIG. 2B, WT 0.87): 10.46±0.92 | number of slips, elevated beam (C57BU6J mice [2]; 3AP-induced ataxia mice, day, FIG. 1D, WT day 0.93): 10.23±0.23 | number of slips, elevated beam (C57BU6J mice [2]; 3AP-induced ataxia mice, night, FIG. 1D, WT night 9.92): 10.24±0.23 | number of slips, elevated beam (C57BU6J mice [2]; local 3AP-intoxicated mice without Bmal1 viral vector, FIG. 4H, wildtype 0.85): 10.7±0.176 | Survival time (C57BU6J mice [3]; 0.05 mg/kg, stereotaxic local injection to the cerebellum): No ataxia | Survival time (C57BU6J mice [3]; 0.1 mg/kg, stereotaxic local injection to the cerebellum): >120 h | Survival time (C57BU6J mice [3]; 0.15 mg/kg, stereotaxic local injection to the cerebellum): No survive | Survival time (C57BU6J mice [3]; 0.2 mg/kg, stereotaxic local injection to the cerebellum): No survive | Survival time (C57BU6J mice [3]; 25 mg/kg, intraperitoneal systematic injection): No ataxia | Survival time (C57BU6J mice [3]; 35 mg/kg, intraperitoneal systematic injection): >120 h | Survival time (C57BU6J mice [3]; 45 mg/kg, intraperitoneal systematic injection): 24 h | Survival time (C57BU6J mice [3]; 50 mg/kg, intraperitoneal systematic injection): 8 h | Survival time (C57BU6J mice [3]; 65 mg/kg, intraperitoneal systematic injection): 3 h | Survival time (C57BU6J mice [3]; 70 mg/kg, intraperitoneal systematic injection): 0.25 h | Relative level of mRNA, Per1 (Per1; 25 mg 3AP, Cerebellum): 0.81 | Relative level of mRNA, Per1 (Per1; 25 mg 3AP, Inferior Olive): 0.88 | Relative level of mRNA, Per1 (Per1; 25 mg 3AP, Motor cortex): 0.87 | Relative level of mRNA, Per1 (Per1; 25 mg 3AP, Striatum): 0.76 | Relative level of mRNA, Per1 (Per1; 35 mg 3AP, Cerebellum): 0.77 | Relative level of mRNA, Per1 (Per1; 35 mg 3AP, Inferior Olive): 0.90 | Relative level of mRNA, Per1 (Per1; 35 mg 3AP, Motor cortex): 0.87 | Relative level of mRNA, Per1 (Per1; 35 mg 3AP, Striatum): 0.86 | performance in the rotarod test (C57BU6J mice [4]; 3AP local injection in the cerebellum, daytime, FIG. 2A, WT 29.32): 14.32±1.02 rpm | motor learning, percentage change in rotarod performance (C57BU6J mice [4]; training time 5 min, Wild Type 76.4): −4.8 ± 4.22% | motor learning, percentage change in rotarod performance (C57BU6J mice [4]; training time 10 min, Wild Type 88.6): −4.1 ± 7.32% | motor learning, percentage change in rotarod performance (C57BU6J mice [4]; training time 15 min, Wild Type 95.46): −4.5 ± 4.12% | rotarod-based motor behavior (C57BU6J mice [4]; day, WT day 28.00): 14.57±1.38 rpm | rotarod-based motor behavior (C57BU6J mice [4]; night, WT night 17.25): 15.22±0.78 rpm | rotarod performance (C57BU6J mice [4]; local 3AP-intoxicated mice without Bmal1 viral vector, FIG. 4G, wildtype 30): 14.2±0.130 rpm | Relative level of mRNA, Cry1 (Cry1; 25 mg 3AP, Cerebellum): 0.82 | Relative level of mRNA, Cry1 (Cry1; 25 mg 3AP, Inferior Olive): 0.74 | Relative level of mRNA, Cry1 (Cry1; 25 mg 3AP, Motor cortex): 0.87 | Relative level of mRNA, Cry1 (Cry1; 25 mg 3AP, Striatum): 0.91 | Relative level of mRNA, Cry1 (Cry1; 35 mg 3AP, Cerebellum): 0.66 | Relative level of mRNA, Cry1 (Cry1; 35 mg 3AP, Inferior Olive): 0.70 | Relative level of mRNA, Cry1 (Cry1; 35 mg 3AP, Motor cortex): 0.68 | Relative level of mRNA, Cry1 (Cry1; 35 mg 3AP, Striatum): 0.89 | number of slips, irregular ladder (C57BU6J mice [5]; 3AP-induced ataxia mice, FIG. 1B, WT 1.61): 8.92±0.178 | number of slips, irregular ladder (C57BU6J mice [5]; local 3AP-intoxicated mice without Bmal1 viral vector, FIG. 4F, wildtype 0.87): 11.2±0.075 | Relative level of mRNA, Bmal1 (Bmal1; 25 mg 3AP, Cerebellum): 0.82 | Relative level of mRNA, Bmal1 (Bmal1; 25 mg 3AP, Inferior Olive): 0.85 | Relative level of mRNA, Bmal1 (Bmal1; 25 mg 3AP, Motor cortex): 0.93 | Relative level of mRNA, Bmal1 (Bmal1; 25 mg 3AP, Striatum): 0.94 | Relative level of mRNA, Bmal1 (Bmal1; 35 mg 3AP, Cerebellum, 0.00 = extremely low concentration or the absence of the gene tested): 0.00*** | Relative level of mRNA, Bmal1 (Bmal1; 35 mg 3AP, Inferior Olive, 0.00 = extremely low concentration or the absence of the gene tested): 0.00*** | Relative level of mRNA, Bmal1 (Bmal1; 35 mg 3AP, Motor cortex, 0.00 = extremely low concentration or the absence of the gene tested): 0.00*** | Relative level of mRNA, Bmal1 (Bmal1; 35 mg 3AP, Striatum, 0.00 = extremely low concentration or the absence of the gene tested): 0.00*** | mRNA expression of Bmal1 (Bmal1; local 3AP-intoxicated mice vs wildtype control, daytime, FIG. 3B): far reduced | Tyrosine Hydrolase (TH) expression in substantia nigra compacta (SNc) (Tyrosine Hydrolase (TH)): similarly expressed | Relative level of mRNA, Clock (Clock; 25 mg 3AP, Cerebellum): 0.83 | Relative level of mRNA, Clock (Clock; 25 mg 3AP, Inferior Olive): 0.86 | Relative level of mRNA, Clock (Clock; 25 mg 3AP, Motor cortex): 0.93 | Relative level of mRNA, Clock (Clock; 25 mg 3AP, Striatum): 0.77 | Relative level of mRNA, Clock (Clock; 35 mg 3AP, Cerebellum): 0.94 | Relative level of mRNA, Clock (Clock; 35 mg 3AP, Inferior Olive): 0.59* | Relative level of mRNA, Clock (Clock; 35 mg 3AP, Motor cortex): 0.82 | Relative level of mRNA, Clock (Clock; 35 mg 3AP, Striatum): 0.87 | expression of calbindin in the Purkinje cell layer (relative intensity) (Calbindin): 0.123±0.052
